Legend:
rabbit corneas = assay: Wound closure of rabbit corneas wounded with ethanol or N-heptanol combined with mechanical debridement; format: in vivo, New Zealand white rabbits; details: C646 10 μM applied 3-times/day to the eye, vs DMSO, n=4
Text: FIGS. 6A and 6B illustrate the impact of C646 on rabbit corneas wounded with either ethanol or N-heptanol combined to mechanical debridement. Rabbit corneas were wounded with ethanol (70%) or N-heptanol (100%) and mechanically debrided with a scalpel blade (crescent type). The rabbits were then divided into two groups: control corneas treated with DMSO or corneas treated with C646 (10 μm). n=4 for each conditions tested. (A) Fluorescein staining of corneas surgically wounded using either ethanol or N-heptanol combined with debridement using a crescent blade and treated with 10 μM C646. Wounded eyes were photographed using a slit lamp. (B) Graph representation of the remaining wounded corneal area (%) for each condition used in (A).
FIGS. 7A and 7B illustrate the impact of C646+SC79 on wounded rabbit corneas combined to mechanical debridement. Rabbit corneas were wounded with ethanol (70%) and mechanically debrided with a scalpel blade (crescent type). The rabbits were then divided into five groups: control corneas treated with DMSO, corneas treated with C646 (1 μM) and SC-79 (1 μM), corneas treated with C646 (1 μM) and SC-79 (10 μM), corneas treated with C646 (1 μM) and SC-79 (100 μM) and corneas treated with C646 (1 μm) and SC-79 (1 mM). n=4 for DMSO and n=5 for each remaining conditions tested. […]

[1] = system: tissue-engineered human corneas; assay: Wound closure of punch-wounded tissue-engineered human corneas; format: cell-based; details: 8-mm punch wound; compounds in culture medium at 2x reported IC50 (GDC-0068 36 nM; C646 800 nM; SC79 10 μM along with C646 800 nM); monitored over 4 days; n=4
Protocol: FIGS. 5A to 5C illustrate the pharmacological alteration of Akt and CREB on wound closure dynamic. (A) Left panel: Tissue-engineered human corneas (TEC) (four reconstructed corneas per condition) were wounded as in FIG. 2 and then maintained in culture medium supplemented with […] (36 nM, thin line), a pharmacological inhibitor of Akt phosphorylation, and C646 (800 nM, broken line), an inhibitor of CREB phosphorylation. Wounded corneas used as controls were exposed solely to the vehicle (DMSO, thick line). Wound closure was monitored over a 4-day period. Right panel: Measurement of wound surface remaining at each day using the ImageJ64 software (n=4). (B) Left panel: TECs were wounded as in (A) and maintained in culture medium containing C646 (800 nM) along with the AKT agonist SC79 (10 μM) (thin line) or DMSO (broken line). Wound closure was monitored as in (A). Right panel: Measurement of wound surface remaining at each day using the ImageJ64 software (n=4). (C) Composite image showing a complete view of the wounded TECs exposed either to the vehicle (DMSO) or pharmacological compounds (C646, GDC0068 or the combination of C646 and SC79) 4 days following corneal damage (sections were stained with Masson's trichrome; cells are pink and collagen is bluish). The wound margin created by the biopsy punch is indicated.
The tissue-engineered, two-layers 3D human corneas that have been used as a biomaterial were produced following the self-assembly approach (see FIG. 1). Briefly, corneal fibroblasts were seeded and cultured in fibroblast growth medium supplemented with 50 μg/ml ascorbic acid (Sigma, Oakville, Ont., Canada) for 35 days. Ascorbic acid allows fibroblasts to secrete and lay down their own ECM. After peeling from the flasks, two tissue sheets were superimposed to form a reconstructed stroma and were cultured for another week so that they could adhere to each other. […]
The wound healing of in vitro reconstructed cornea was studied. […] Wound healing was monitored daily with microphotographs. […]

mouse model of stroke = details: cited from earlier work
Akt = details: cell based assays; cited from earlier work

Row | Structure (SMILES) | wound closing time (rabbit corneas; ethanol (70%) injury combined with mechanical debridement) | wound closure (rabbit corneas; n-heptanol (100%) injury combined with mechanical debridement) | wound closure when compared to control (DMSO) [1] | neuronal death (mouse model of stroke) | cytosolic Akt signaling (Akt)
1 | CC1=NN(c2ccc(C(=O)O)cc2)C(=O)C1=Cc1ccc(-c2cc(C)c(C)cc2[N+](=O)[O-])o1 [C646, 4-[4-[[5-(4,5-Dimethyl-2-nitrophenyl)-2-furanyl]methylene]-4,5-dihydro-3-methyl-5-oxo-1H-pyrazol-1-yl]benzoic acid] | clear reduction in the wound closing time | no significant impact on wound closure | accelerated wound closure | – | –
2 | CC(C)NC[C@@H](C(=O)N1CCN(c2ncnc3c2[C@H](C)C[C@H]3O)CC1)c1ccc(Cl)cc1 [GDC-0068] | – | – | delayed wound closure | – | –
3 | CCOC(=O)C1=C(N)Oc2ccc(Cl)cc2C1C(C#N)C(=O)OCC (stereo not shown) [SC-79, Ethyl-2-amino-6-chloro-4-(1-cyano-2-ethoxy-2-oxoethyl)-4H-chromene-3-carboxylate] | – | – | accelerated wound closure | prevents neuronal death | induces cytosolic Akt signaling

— patent publication US10537547B2, “Compositions favoring wound repair” (UNIVERSITÉ LAVAL, priority 2015, dated 2020)
